Structures can show the parent of a compound that is named as a salt.
Key:
[1] = system: E. coli K12; experiment: MIC determination by microbroth dilution; format: cell-based, Escherichia coli; conditions: Escherichia coli, K12
[2] = system: Proteus mirabilis ATCC 25933; experiment: MIC determination by microbroth dilution; format: cell-based; conditions: ATCC25933
[3] = system: M. tuberculosis H37Rv; experiment: MIC determination by microbroth dilution, anti-tuberculosis activity; format: cell-based, Mycobacterium tuberculosis
[4] = in vivo; set-up: species or system rats; conditions: male, Sprague-Dawley, rat, iv
Protocol: Pharmacokinetic Studies: Catheterized male Sprague-Dawley rats (jugular vein alone for oral study and jugular vein and femoral vein for intravenous study) weighing approximately 225 g were obtained from Harlan Bioscience (Indianapolis, Ind., United States of America). The animals were kept on a 12 hr light/dark cycle with food and water available ad libitum. Groups of rats (n=4) received either an intravenous (IV) or oral dose of a test compound at a dose level of 10 mg/kg or 100 mg/kg, respectively. For oral administration, the animals were fasted overnight and until 4 hr after administration of test compound. Serial blood samples (approx. 250 μL) were collected pre-dose and at predetermined time points post-dose until 48 hours. Plasma was separated immediately by centrifugation (10,000 rpm for 10 min at 4° C.) and stored at −80° C. until analysis. Urine specimens were collected for a period of 48 hours following drug administration. The study protocol was approved by the institutional animal care and use committee of the University of Tennessee Health Science Center (Memphis, Tenn., United States of America).
Sample Preparation and LC-MS/MS Assay: A calibration curve ranging from 7.81-1000 μg/L was constructed for each test compound by spiking the test compound into 50 μL of blank plasma. […] Plasma proteins were precipitated by the addition of four volumes of ice cold methanol containing IS. These samples were vortexed and kept on ice for 20 minutes. Following this, the samples were centrifuged at 10,000 rpm for 10 minutes at 4° C. and the supernatants were diluted if necessary and injected onto LC-MS/MS for analysis. Chromatographic separations were carried out using a Shimadzu liquid chromatograph (Shimadzu Corporation, Kyoto, Japan) consisting of two pumps, online degasser, system controller and a CTC Leap auto sampler (Leap Technologies, Carrboro, N.C., United States of America). A gradient of methanol and 10 mM ammonium acetate at pH 3.5 was used at a flow rate of 0.4 mL/min. A Phenomenex® Luna 3μ HILIC, 100×4.6 mm column (Phenomenex, Torrance, Calif., United States of America) protected with a guard column was used for the separation. 10 μL of sample was injected onto the column and the eluate was led directly into an API 3000 triple-quadrupole mass spectrometer (Applied Biosystems ABI/MDS-Sciex, Foster City, Calif., United States of America) equipped with an electrospray ion source. The instrument was operated in the positive ion mode with nebulizer gas (NEB) at 7 psi, curtain gas (CUR) at 8 psi, collision gas (CAD) at 10 psi, ion spray voltage (IS) at +4000 V and temperature (TEM) at 500° C. The resulting multiple reaction monitoring chromatograms were used for quantification using Analyst software version 1.4.1 (Applied Biosystems ABI/MDS-Sciex, Foster City, Calif., United States of America).
Pharmacokinetic Data Analysis: Plasma concentration-time data for oral dose were analyzed by non-compartmental analysis. A two compartment open model with bolus input and first order output was used to analyze the IV plasma concentration-time data. The area under the plasma concentration-time curve from time 0 to infinity (AUCinf) was calculated by the trapezoidal rule with extrapolation to time infinity. Mean residence time (MRT), the average amount of time a particle remains in a compartment of system was calculated for IV dose using MRT=AUMCinf/AUCinf where AUMCinf is the area under the moment curve when the concentration-time curve is extrapolated to infinity. The systemic clearance (CL) was calculated using the equation CL=Doseiv/AUCinf iv, where Doseiv and AUCinf, iv are the IV dose and corresponding area under the plasma concentration-time curve from time 0 to infinity, respectively. An estimate of volume of distribution at steady state (Vss) was obtained from IV data using Vss=MRT*CL. […]

[5] = format: in vitro ADME; conditions: rat, microsomes, 1.5 h, 2 µM, pH 7.4
Protocol: In Vitro Microsomal Metabolic Stability: In vitro microsomal metabolic stability of the compounds was assessed using pooled rat liver microsomal preparations (Cellzdirect, Austin, Tex., United States of America). Reactions were started by adding 25 μL of microsomal protein solution (10 mg/mL) to 25 μL of test compound (20 μM) and 200 μL of NADPH regenerating solution (1.3 mM NADP+, 3.3 mM glucose-6-phosphate, 3.3 mM MgCl2 and 1 unit/mL glucose-6-phosphate dehydrogenase in pH 7.4 phosphate buffer solution). The reaction mixture was incubated at 37° C. and samples were taken at 0, 5, 10, 15, 30, 45, 60 and 90 minutes respectively. A reaction mixture containing above mentioned composition but instead using deactivated microsomes was used for control. All the samples were analyzed using LC-MS/MS assay. Disappearance of the parent compound was monitored during the incubation period. The percentage of parent compound remaining intact was estimated by comparing analyte concentrations before and after incubation.
Following intravenous administration of 10 mg/kg in rats, 1329 follows a bi-exponential concentration/time profile with distinct distribution and elimination phases. Plasma protein binding of the compound is approximately 30%. 1329 is widely distributed with a steady state volume of distribution of 4.3 L/kg. It has a mean residence time in the body of approximately 5.3 hours.

[6] = system: E. coli ribosomes; format: biochemical
[7] = system: S. aureus 8325 or strain ATCC 29213; experiment: MIC determination by microbroth dilution; format: cell-based, Staphylococcus aureus; conditions: Staphylococcus aureus, ATCC29213; S. aureus 8325 or strain ATCC 29213 (for 1471-1544)
[8] = system: Strep. pneumoniae DAW27 or strain R6; experiment: MIC determination by microbroth dilution; format: cell-based, Streptococcus pneumoniae; conditions: Streptococcus pneumoniae; Strep. pneumoniae DAW27 or strain R6 (for 1443-1544); read-out: MIC S. pneumoniae

Compound: CN[C@@H]1[C@H](O)[C@H](NC)C2O[C@]3(O)C(OC2[C@H]1O)O[C@H](C)C[C@H]3NC(=O)Cc1ccccn1 (stereo partly drawn) [Compound 1329, 3′-Dihydro-3′-deoxy-4(R)-(pyridin-2yl)acetylamino spectinomycin Dihydrochloride]
- MIC [1]: 200 µg/mL
- MIC [2]: > 200 µg/mL
- Activity (MIC) of 1329 compared to streptomycin [3]: 0.8-1.6
- MIC ([3]; Mycobacterium tuberculosis, H37RV, 168 h, read-out: MIC): 0.8 µg/mL
- clearance [4]: 13.3 mL/min/kg
- dose eliminated unchanged in the first 6 hours [4]: approx. 40%
- excretion ratio (renal clearance to glomerular filtration rate) [4]: 1.7
- fraction of dose excreted unchanged by the kidneys [4]: 0.46
- hepatic extraction ratio [4]: 0.13
- MRT ([4]; 10 mg/kg): ~5.3 h
- parent drug remaining intact [5]: 95%
- IC50 ([6]; E. coli S30 system, FIG. 4, read-out: concentration causing 50% reduction in the synthesis of luciferase): 660 nM
- IC50, 50% inhibition of luciferase biosynthesis in S30 assay ([6]; E. coli S30 transcription/translation assay): 0.29 µg/mL
- MIC [7]: 50 µg/mL
- MIC [8]: 6.25 µg/mL

Source: US9284325B2, “Spectinamides as anti-tuberculosis agents” (UNIVERSITY OF TENNESSEE RESEARCH FOUNDATION, priority 2009, dated 2016)
